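1) Cells in 96-well plates. 2) Compound, 48 h, 5 concentrations. 3) Linear interpolation between surrounding doses. 4) Unreached endpoint = highest concentration. GI50 is the concentration that inhibits growth by half.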 The source made the active and inactive calls. Cut-off read from the data, not from the text of the source: active = GI50 up to about 1.1 µM and inactive = higher.
What was measured:
Assay in all cases: DTP human tumour cell line panel, 48 h
T47D = test system: T47D
LOX IMVI = test system: LOX IMVI
OVCAR-3 = test system: OVCAR-3
SK-MEL-28 = test system: SK-MEL-28
NCI-H460 = test system: NCI-H460
SF-268 = test system: SF-268
HL-60 = test system: HL-60
UACC-62 = test system: UACC-62
UO-31 = test system: UO-31
RPMI-8226 = test system: RPMI-8226
SNB-19 = test system: SNB-19
UACC-257 = test system: UACC-257
SW-620 = test system: SW-620
MDA-N = test system: MDA-N
SR = test system: SR
HCC 2998 = test system: HCC 2998
MDA-MB-231 = test system: MDA-MB-231
MOLT-4 = test system: MOLT-4
786-0 = test system: 786-0
RXF 393 = test system: RXF 393
KM12 = test system: KM12
SN12C = test system: SN12C
HT-29 = test system: HT-29
SF-539 = test system: SF-539
CCRF-CEM = test system: CCRF-CEM
SF-295 = test system: SF-295
A549 = test system: A549
BT-549 = test system: BT-549
OVCAR-5 = test system: OVCAR-5
Hs-578T = test system: Hs-578T
SNB-75 = test system: SNB-75
OVCAR-4 = test system: OVCAR-4
MCF7 = test system: MCF7
K562 = test system: K562
TK-10 = test system: TK-10
SK-OV-3 = test system: SK-OV-3
COLO 205 = test system: COLO 205
NCI/ADR-RES = test system: NCI/ADR-RES
OVCAR-8 = test system: OVCAR-8
A498 = test system: A498
SK-MEL-5 = test system: SK-MEL-5
HCT-116 = test system: HCT-116
U-251 = test system: U-251
NCI-H23 = test system: NCI-H23
HOP-62 = test system: HOP-62
HOP-92 = test system: HOP-92
DU-145 = test system: DU-145
MDA-MB-435 = test system: MDA-MB-435
M14 = test system: M14
PC-3 = test system: PC-3
CAKI-1 = test system: CAKI-1
HCT-15 = test system: HCT-15
SK-MEL-2 = test system: SK-MEL-2
Malme-3M = test system: Malme-3M
NCI-H226 = test system: NCI-H226
IGROV-1 = test system: IGROV-1
EKVX = test system: EKVX
NCI-H522 = test system: NCI-H522
ACHN = test system: ACHN

c1ccc(C2SCC3=Nc4ccccc4CN32)cc1 (stereo not drawn)
GI50 (T47D): 25.8 µM (inactive) | GI50 (LOX IMVI): 36 µM (inactive) | GI50 (OVCAR-3): 0.78 µM (active) | GI50 (SK-MEL-28): 50.4 µM (inactive) | GI50 (NCI-H460): 54 µM (inactive) | GI50 (SF-268): 78.5 µM (inactive) | GI50 (HL-60): 23.6 µM (inactive) | GI50 (UACC-62): 60.1 µM (inactive) | GI50 (UO-31): 29.9 µM (inactive) | GI50 (RPMI-8226): 39.8 µM (inactive) | GI50 (SNB-19): 13.4 µM (inactive) | GI50 (UACC-257): 94.6 µM (inactive) | GI50 (SW-620): 87.5 µM (inactive) | GI50 (MDA-N): 87.7 µM (inactive) | GI50 (SR): 31.4 µM (inactive) | GI50 (HCC 2998): 61.7 µM (inactive) | GI50 (MDA-MB-231): > 100 µM (inactive) | GI50 (MOLT-4): 34.7 µM (inactive) | GI50 (786-0): 21.3 µM (inactive) | GI50 (RXF 393): 10.8 µM (inactive) | GI50 (KM12): 43.5 µM (inactive) | GI50 (SN12C): > 100 µM (inactive) | GI50 (HT-29): 17.8 µM (inactive) | GI50 (SF-539): 28.4 µM (inactive) | GI50 (CCRF-CEM): 34.2 µM (inactive) | GI50 (SF-295): 14.7 µM (inactive) | GI50 (A549): 53.8 µM (inactive) | GI50 (BT-549): > 100 µM (inactive) | GI50 (OVCAR-5): 25.8 µM (inactive) | GI50 (Hs-578T): 73.8 µM (inactive) | GI50 (SNB-75): 30.5 µM (inactive) | GI50 (OVCAR-4): 78.2 µM (inactive) | GI50 (MCF7): 26.9 µM (inactive) | GI50 (K562): 33.5 µM (inactive) | GI50 (TK-10): 75.2 µM (inactive) | GI50 (SK-OV-3): 23.4 µM (inactive) | GI50 (COLO 205): 19.4 µM (inactive) | GI50 (NCI/ADR-RES): 17.5 µM (inactive) | GI50 (OVCAR-8): 18.2 µM (inactive) | GI50 (A498): > 100 µM (inactive) | GI50 (SK-MEL-5): 14.4 µM (inactive) | GI50 (HCT-116): 14.8 µM (inactive) | GI50 (U-251): 63 µM (inactive) | GI50 (NCI-H23): 16.6 µM (inactive) | GI50 (HOP-62): 26.1 µM (inactive) | GI50 (HOP-92): 50.8 µM (inactive) | GI50 (DU-145): 24.9 µM (inactive) | GI50 (MDA-MB-435): 29.7 µM (inactive) | GI50 (M14): 31 µM (inactive) | GI50 (PC-3): 25.9 µM (inactive) | GI50 (CAKI-1): > 100 µM (inactive) | GI50 (HCT-15): 51.4 µM

CCCN1CC=C(c2cc(C(=O)OCC)[nH]c2-c2cc(C)no2)C1=O
GI50 (T47D): > 100 µM (inactive) | GI50 (SK-MEL-2): > 100 µM (inactive) | GI50 (Malme-3M): > 100 µM (inactive) | GI50 (LOX IMVI): > 100 µM (inactive) | GI50 (OVCAR-3): > 100 µM (inactive) | GI50 (SK-MEL-28): > 100 µM (inactive) | GI50 (NCI-H460): > 100 µM (inactive) | GI50 (SF-268): > 100 µM (inactive) | GI50 (HL-60): > 100 µM (inactive) | GI50 (UACC-62): > 100 µM (inactive) | GI50 (UO-31): 89.7 µM (inactive) | GI50 (RPMI-8226): 75 µM (inactive) | GI50 (SNB-19): > 100 µM (inactive) | GI50 (UACC-257): > 100 µM (inactive) | GI50 (SW-620): > 100 µM (inactive) | GI50 (MDA-N): > 100 µM (inactive) | GI50 (SR): 54.7 µM (inactive) | GI50 (HCC 2998): > 100 µM (inactive) | GI50 (MDA-MB-231): > 100 µM (inactive) | GI50 (MOLT-4): 53.6 µM (inactive) | GI50 (786-0): > 100 µM (inactive) | GI50 (RXF 393): > 100 µM (inactive) | GI50 (KM12): > 100 µM (inactive) | GI50 (SN12C): > 100 µM (inactive) | GI50 (HT-29): > 100 µM (inactive) | GI50 (SF-539): > 100 µM (inactive) | GI50 (CCRF-CEM): 89.3 µM (inactive) | GI50 (SF-295): > 100 µM (inactive) | GI50 (A549): > 100 µM (inactive) | GI50 (BT-549): > 100 µM (inactive) | GI50 (OVCAR-5): > 100 µM (inactive) | GI50 (Hs-578T): > 100 µM (inactive) | GI50 (SNB-75): 30.8 µM (inactive) | GI50 (OVCAR-4): > 100 µM (inactive) | GI50 (MCF7): > 100 µM (inactive) | GI50 (K562): > 100 µM (inactive) | GI50 (SK-OV-3): > 100 µM (inactive) | GI50 (COLO 205): > 100 µM (inactive) | GI50 (NCI/ADR-RES): > 100 µM (inactive) | GI50 (OVCAR-8): > 100 µM (inactive) | GI50 (A498): > 100 µM (inactive) | GI50 (NCI-H226): 73.5 µM (inactive) | GI50 (SK-MEL-5): > 100 µM (inactive) | GI50 (HCT-116): > 100 µM (inactive) | GI50 (U-251): > 100 µM (inactive) | GI50 (IGROV-1): > 100 µM (inactive) | GI50 (NCI-H23): > 100 µM (inactive) | GI50 (HOP-62): > 100 µM (inactive) | GI50 (HOP-92): > 100 µM (inactive) | GI50 (DU-145): > 100 µM (inactive) | GI50 (MDA-MB-435): > 100 µM (inactive) | GI50 (M14): > 100 µM (inactive) | GI50 (PC-3): > 100 µM (inactive) | GI50 (CAKI-1): > 100 µM (inactive) | GI50 (HCT-15): > 100 µM | GI50 (EKVX): > 100 µM (inactive)

COC(=O)/C=C(/C)n1nc2ccccc2n1
GI50 (T47D): > 100 µM (inactive) | GI50 (NCI-H522): > 100 µM (inactive) | GI50 (SK-MEL-2): > 100 µM (inactive) | GI50 (Malme-3M): > 100 µM (inactive) | GI50 (OVCAR-3): > 100 µM (inactive) | GI50 (SK-MEL-28): > 100 µM (inactive) | GI50 (NCI-H460): > 100 µM (inactive) | GI50 (SF-268): > 100 µM (inactive) | GI50 (UACC-62): > 100 µM (inactive) | GI50 (UO-31): > 100 µM (inactive) | GI50 (RPMI-8226): 22.4 µM (inactive) | GI50 (SNB-19): > 100 µM (inactive) | GI50 (UACC-257): > 100 µM (inactive) | GI50 (SW-620): > 100 µM (inactive) | GI50 (MDA-N): > 100 µM (inactive) | GI50 (SR): > 100 µM (inactive) | GI50 (HCC 2998): > 100 µM (inactive) | GI50 (MDA-MB-231): > 100 µM (inactive) | GI50 (MOLT-4): > 100 µM (inactive) | GI50 (786-0): > 100 µM (inactive) | GI50 (RXF 393): > 100 µM (inactive) | GI50 (KM12): > 100 µM (inactive) | GI50 (SN12C): > 100 µM (inactive) | GI50 (HT-29): > 100 µM (inactive) | GI50 (CCRF-CEM): > 100 µM (inactive) | GI50 (SF-295): > 100 µM (inactive) | GI50 (A549): > 100 µM (inactive) | GI50 (BT-549): > 100 µM (inactive) | GI50 (OVCAR-5): > 100 µM (inactive) | GI50 (Hs-578T): > 100 µM (inactive) | GI50 (SNB-75): > 100 µM (inactive) | GI50 (OVCAR-4): > 100 µM (inactive) | GI50 (MCF7): > 100 µM (inactive) | GI50 (K562): > 100 µM (inactive) | GI50 (TK-10): > 100 µM (inactive) | GI50 (SK-OV-3): > 100 µM (inactive) | GI50 (COLO 205): > 100 µM (inactive) | GI50 (NCI/ADR-RES): > 100 µM (inactive) | GI50 (OVCAR-8): > 100 µM (inactive) | GI50 (A498): 77.3 µM (inactive) | GI50 (NCI-H226): > 100 µM (inactive) | GI50 (SK-MEL-5): > 100 µM (inactive) | GI50 (HCT-116): > 100 µM (inactive) | GI50 (U-251): > 100 µM (inactive) | GI50 (ACHN): > 100 µM (inactive) | GI50 (IGROV-1): > 100 µM (inactive) | GI50 (NCI-H23): > 100 µM (inactive) | GI50 (HOP-62): > 100 µM (inactive) | GI50 (DU-145): > 100 µM (inactive) | GI50 (MDA-MB-435): > 100 µM (inactive) | GI50 (M14): > 100 µM (inactive) | GI50 (PC-3): > 100 µM (inactive) | GI50 (CAKI-1): > 100 µM (inactive) | GI50 (HCT-15): > 100 µM | GI50 (EKVX): 37.7 µM (inactive)
